Source: article PMC6338644 (The FASEB Journal, 2018)
Where “and” joins values, the source holds several entries; their conditions need not be identical. Equal entries are not always repeated. Structures can show the parent of a compound that is named as a salt. Each block holds one molecule with its values, some of them ahead of it.

Key:
db/db mice [1] = conditions: cited from earlier work
[2] = biological target: T1, His-tagged human SHIP1 phosphatase domain (Homo sapiens, UniProt Q92835); assay: Malachite green phosphate assay, recombinant SHIP1 phosphatase domain (High Throughput Biomedicine Unit); format: biochemical; conditions: for IC50: purified His-tagged phosphatase domain
T1 construct: Recombinant His-tagged human SHIP2 and SHIP1 phosphatase domains were produced as previously described; His; made in house
T1 sequence (Q92835 399-715 limits assumed): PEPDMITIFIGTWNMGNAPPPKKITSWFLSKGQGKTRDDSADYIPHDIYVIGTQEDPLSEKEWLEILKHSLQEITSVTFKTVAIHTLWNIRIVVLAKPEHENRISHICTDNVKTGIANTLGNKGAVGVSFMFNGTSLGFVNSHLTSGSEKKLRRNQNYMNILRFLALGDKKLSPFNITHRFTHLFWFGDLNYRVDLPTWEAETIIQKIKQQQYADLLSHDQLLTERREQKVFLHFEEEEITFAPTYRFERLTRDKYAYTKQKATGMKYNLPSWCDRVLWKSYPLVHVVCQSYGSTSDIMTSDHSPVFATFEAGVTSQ
Description: Recombinant His-tagged human SHIP2 and SHIP1 phosphatase domains were produced as previously described ([17]). […] Immunocomplexes were bound to protein G-Sepharose beads at +4°C for 2 h and washed 3 times with malachite green phosphate assay buffer {10 mM 4-(2-hydroxyethyl)-1-piperazineethanesulfonic acid (HEPES), pH 7.25, 6 mM MgCl2, 0.1% 3-[(3-cholamidopropyl)dimethylammonio]-1-propanesulfonate (CHAPS), 250 mM sucrose, and 0.25 mM EDTA}.
The catalytic activities of the recombinant SHIP2 and SHIP1 phosphatase domains were determined by malachite green phosphate assay at the High Throughput Biomedicine Unit (University of Helsinki) using D-myo-PI(3,4,5)P3 (Echelon Biosciences, Salt Lake City, UT, USA). Different volumes, resulting in desired final concentrations of inhibitors, were transferred to the wells of 384-well plates by using the Echo550 acoustic dispenser (Labcyte, San Jose, CA, USA). Recombinant protein (100 ng) in reaction buffer {10 mM HEPES, pH 7.25, 6 mM MgCl2, 0.1% CHAPS, 250 mM sucrose, and 0.25 mM EDTA} was placed in each well (7.5 µl), and the plates were preincubated at room temperature for 15 min. The phosphatase reaction was started by adding PI(3,4,5)P3 diluted in the reaction buffer (7.5 µl) to each well to reach a final concentration of 100 µM PI(3,4,5)P3 in the 15 µl reaction volume. The plates were incubated at room temperature for 20 min, after which, 15 µl BIOMOL green reagent (Biomol, Plymouth Meeting, PA, USA) was added to each well, and then the plates were incubated for another 25 min at room temperature. Absorbance was measured at 620 nm using a Pherastar FS plate reader (BMG Labtech, Offenburg, Germany). For the manual malachite green phosphate assay in 96-well plates [see Fig. 1; and activity measurement of phosphatase and tensin homolog (PTEN; Signalchem, Richmond, BC, Canada)], the reaction volume was increased to 50 µl, and 100 µl Biomol Green Reagent was added. The catalytic activity of SHIP2 immunoprecipitated from cell and tissue lysates was determined as in Saurus et al. ([22]), omitting SHIP2 inhibitors in lysis buffer, immunoprecipitation reaction, wash, and assay buffers. AS1949490 was synthesized, as described in Supplemental Fig. S1A, or purchased from Tocris Bioscience (Bristol, United Kingdom).

[3] = tested on: Akt phosphorylation (pAkt S473); assay: Immunoblot of Akt phosphorylation in cultured cells; format: cell-based, rat, human; conditions: 2 mM, 20–24 h
db/db mice [4] = assay: Metabolic assays in db/db mice; format: in vivo, mouse; conditions: 250 mg/kg per day, 12 d
Description: At the end of the experiment, mice were euthanized.
Insulin tolerance test was performed and blood glucose measured at the indicated times after insulin injection, and the area under the curve (AUC) was calculated (n = 5–6).

[5] = tested on: SHIP2-overexpressing podocytes; assay: Apoptosis of SHIP2-overexpressing podocytes (cleaved caspase-3 immunoblot, Annexin V flow cytometry); format: cell-based, human; conditions: 2 mM, 48 h
[6] = biological target: SHIP2 in tissues of db/db mice (Mus musculus, UniProt Q6P549); conditions: 250 mg/kg per day, 12 d
[7] = tested on: podocytes in kidneys of patients with T2D; assay: Podocyte number per glomerulus (WT1-positive cells) in patient kidneys; format: in vivo, human; conditions: compared with people without T2D; WT1-positive cells per glomeruli
[8] = tested on: HA-GLUT4-GFP at the plasma membrane of L6-GLUT4 cells; assay: On-Cell Western and HA-GLUT4-GFP endocytosis assay in L6-GLUT4 cells; format: cell-based, rat; conditions: 20–24 h
Description: Glucose uptake assay and On-Cell Western were performed essentially as in Tolvanen et al. ([19]). […] Cells were transferred on ice; incubated with anti-HA IgG in serum-free medium for 15 min, followed by additional incubation in fresh cell differentiation medium for 15 min at +37°C; and fixed with 2% paraformaldehyde for 20 min. Cells were incubated with IRDye 800 donkey anti-mouse IgG and nuclear marker DRAQ-5 (Thermo Fisher Scientific). Detection and quantitation were performed with the Odyssey Infrared Imager (Li-Cor Biosciences, Lincoln, NE, USA).
C) Knockdown of SHIP2 reduces metformin-induced glucose uptake. […] L6-GLUT4 myotubes overexpressing SHIP2 were treated and glucose uptake performed as described in C. […] Time point 15 min indicates the amount of HA detected on the cells after 15 min internalization.

[9] = tested on: GLUT1 and GLUT4 protein expression; assay: Immunoblot of GLUT1 and GLUT4 expression in myotubes and podocytes; format: cell-based, rat, human; conditions: 2 mM, 20–24 h
[10] = biological target: T2, purified His-tagged SHIP2 phosphatase domain (Homo sapiens, UniProt O15357); assay: Manual malachite green phosphate assay (96-well), purified SHIP2 phosphatase domain; format: biochemical; conditions: 10 µM; 100 ng enzyme; manual assay (Fig. 1B)
T2 construct: we produced a His-tagged human SHIP2 phosphatase domain; His; made in house
T2 sequence (O15357 419-732 limits assumed): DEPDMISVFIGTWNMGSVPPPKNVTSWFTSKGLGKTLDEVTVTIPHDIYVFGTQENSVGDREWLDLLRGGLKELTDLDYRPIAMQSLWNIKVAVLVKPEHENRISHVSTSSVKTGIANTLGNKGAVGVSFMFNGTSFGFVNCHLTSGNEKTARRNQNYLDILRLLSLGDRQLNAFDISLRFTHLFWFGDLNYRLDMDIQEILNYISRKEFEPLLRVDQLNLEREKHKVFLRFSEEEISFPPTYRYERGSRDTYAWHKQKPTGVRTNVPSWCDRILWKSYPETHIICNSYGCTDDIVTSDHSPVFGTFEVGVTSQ

Chain of SHIP2 in tissues of db/db mice (Q6P549 whole entry): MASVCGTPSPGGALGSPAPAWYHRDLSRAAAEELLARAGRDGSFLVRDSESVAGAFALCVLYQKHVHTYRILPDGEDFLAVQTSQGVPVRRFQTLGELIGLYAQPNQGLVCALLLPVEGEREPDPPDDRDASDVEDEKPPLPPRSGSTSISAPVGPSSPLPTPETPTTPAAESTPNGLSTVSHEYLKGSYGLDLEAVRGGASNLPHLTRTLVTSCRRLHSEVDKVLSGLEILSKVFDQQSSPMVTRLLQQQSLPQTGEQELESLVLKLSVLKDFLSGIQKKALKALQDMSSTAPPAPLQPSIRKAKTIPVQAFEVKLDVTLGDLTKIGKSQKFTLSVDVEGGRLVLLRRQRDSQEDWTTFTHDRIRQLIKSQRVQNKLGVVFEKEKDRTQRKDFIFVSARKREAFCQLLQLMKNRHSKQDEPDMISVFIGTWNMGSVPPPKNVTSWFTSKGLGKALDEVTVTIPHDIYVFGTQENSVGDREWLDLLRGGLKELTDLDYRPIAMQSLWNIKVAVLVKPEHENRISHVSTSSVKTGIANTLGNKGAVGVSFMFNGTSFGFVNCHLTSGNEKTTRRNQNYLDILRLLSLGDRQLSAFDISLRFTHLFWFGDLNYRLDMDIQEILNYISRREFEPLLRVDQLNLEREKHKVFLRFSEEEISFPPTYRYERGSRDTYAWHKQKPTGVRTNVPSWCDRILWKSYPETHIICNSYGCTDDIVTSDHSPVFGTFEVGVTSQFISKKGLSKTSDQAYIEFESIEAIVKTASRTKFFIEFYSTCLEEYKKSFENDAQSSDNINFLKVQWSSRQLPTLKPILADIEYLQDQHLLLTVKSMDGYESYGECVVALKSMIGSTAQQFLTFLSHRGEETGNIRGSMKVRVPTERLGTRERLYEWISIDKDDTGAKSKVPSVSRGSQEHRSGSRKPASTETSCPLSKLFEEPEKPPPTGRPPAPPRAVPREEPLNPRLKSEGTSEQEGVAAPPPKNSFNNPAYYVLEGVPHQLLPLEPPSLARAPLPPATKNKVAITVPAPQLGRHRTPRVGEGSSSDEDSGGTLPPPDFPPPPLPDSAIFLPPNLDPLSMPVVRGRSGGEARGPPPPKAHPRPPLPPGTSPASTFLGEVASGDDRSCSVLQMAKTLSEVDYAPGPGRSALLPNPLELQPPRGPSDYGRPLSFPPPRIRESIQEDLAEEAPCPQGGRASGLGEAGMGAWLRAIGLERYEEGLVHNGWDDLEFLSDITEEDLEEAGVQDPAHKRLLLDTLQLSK

SMILES: C[C@H](NC(=O)c1sccc1OCc1ccc(Cl)cc1)c1ccccc1 [AS1949490]
PCK1 expression in db/db mice (db/db mice [1]): reduce
blood glucose in db/db mice (db/db mice [1]; short-term treatment): reduced
insulin sensitivity in db/db mice (db/db mice [1]; short-term treatment): improved
SHIP1 Inhibition efficiency ([2]; inhibitors at 100 µM concentration, 100 µM): 12% and 11.8%
IC50 [2]: > 50 µM

inhibition of SHIP1 (in words) [2]: does not inhibit
inhibition at 100 µM ([2]; inhibitors at 100 µM concentration, read-out: SHIP1 Inhibition efficiency): 11.1%
IC50 [2]: > 50 µM
SHIP2 activity in the liver [6]: not reduced
decrease in enzymatic activity of SHIP2 in kidney [6]: 40%
reduction of catalytic activity of recombinant SHIP2 phosphatase domain [10]: 44%
SMILES: CN(C)C(=N)N=C(N)N [Metformin, 1,1-Dimethylbiguanide hydrochloride]
insulin-induced Akt phosphorylation in SHIP2-overexpressing podocytes ([3]; insulin 200 nM, 15 min): restored its activity
Akt phosphorylation (activity) in basal state ([3]; myotubes and podocytes): did not increase
effect on body weight (db/db mice [4]): no effect
effect on fasting blood glucose concentrations (db/db mice [4]; 6 h fasting): no effect
effect on urinary albumin excretion (db/db mice [4]; 24 h urine): no effect
insulin tolerance test: fasting blood glucose at 30–120 min after insulin administration (db/db mice [4]; insulin 0.75 U/kg): reduces
insulin tolerance test: glucose area under the curve (db/db mice [4]; insulin 0.75 U/kg): reduces
cleaved caspase-3 level in SHIP2-overexpressing podocytes [5]: back to the level in the control
level of apoptosis (Annexin V, flow cytometry) in SHIP2-overexpressing podocytes [5]: back to the level of the control
podocyte loss in metformin-receiving patients [7]: 11%
increase in amount of HA-GLUT4-GFP on the PM ([8]; L6-GLUT4 cells, basal conditions, 2 mM): 40%
decrease in amount of HA-GLUT4-GFP on the PM after 15 min uptake (endocytosis) ([8]; metformin 2 mM): 10%
effect on GLUT1 and GLUT4 protein expression levels [9]: no effect
